“Also recorded” adds a separate entry of the source.
Legend:
Tau, Fyn = test: Western blot of Tau, Fyn and GAPDH levels in neurons; assay type: cell-based, rat; details: 15 μM, 24 hours
Procedure: Like before (Rush, et al. (2020) Neurobiol Dis 134, 104668), at DIV13, neurons were treated with 15 μM compound no. 69 or Vehicle. 24 hours later, cells were harvested in lysis buffer (50 mM Tris, 150 mM NaCl, 5 mM EDTA, 0.1% SDS, 0.1% Triton-X-100, and 0.5% sodium deoxycholate) and centrifuged to remove cellular debris. Samples were diluted in LDS and reducing agent and heated at 70° C. for 10 minutes. Samples were run on 4-12% bis-tris gels in MOPS buffer with 5 μg protein per well, determined by a Bradford assay, then transferred to a PDVF membrane. Membrane was blocked for 1 hour in 50% Odysey blocking buffer then probed overnight with Fyn3 (1:1000) antibody at 4° C. Membrane was washed 3× in TBST, then incubated for 1 hour at RT in IRDye 700 or 800 conjugated secondary and scanned on an Odyssey Scanner. Images were quantified in ImageJ. After probing for GAPDH (1:5,000), the blot was stripped with Restore PLUS Western Blot Sripping Buffer for 30 minutes at room temperature, washed in TBST, and probed for DAKO Tau (1:10,000).

Fyn kinase = Fyn kinase (Homo sapiens (Human), UniProt P06241); test: Custom panel for Fyn kinase activity; assay type: biochemical; details: 3 μM
Fyn kinase, sequence (P06241 whole entry): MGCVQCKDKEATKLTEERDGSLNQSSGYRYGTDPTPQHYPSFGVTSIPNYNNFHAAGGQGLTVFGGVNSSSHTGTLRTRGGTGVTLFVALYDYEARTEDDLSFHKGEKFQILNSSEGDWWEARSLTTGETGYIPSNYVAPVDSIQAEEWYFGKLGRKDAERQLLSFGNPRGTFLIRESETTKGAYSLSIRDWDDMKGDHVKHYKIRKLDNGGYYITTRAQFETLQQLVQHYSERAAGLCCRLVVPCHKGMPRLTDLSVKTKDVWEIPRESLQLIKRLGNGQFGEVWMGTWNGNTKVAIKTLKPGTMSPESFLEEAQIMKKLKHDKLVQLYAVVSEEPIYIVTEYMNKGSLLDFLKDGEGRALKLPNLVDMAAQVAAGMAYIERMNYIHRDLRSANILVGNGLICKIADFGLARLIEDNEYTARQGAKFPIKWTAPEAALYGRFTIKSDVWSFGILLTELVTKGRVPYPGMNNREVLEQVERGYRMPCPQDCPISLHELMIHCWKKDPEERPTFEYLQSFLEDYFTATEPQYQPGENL
From the text: 69 and compound no. […] Since Fyn was not included in that panel, a custom panel was completed for Fyn kinase activity.

full-length Tau = full-length Tau (Homo sapiens (Human), UniProt P10636); test: Isothermal titration calorimetry, full-length Tau; assay type: binding
full-length Tau, sequence (P10636 other isoform, or with tags, fused parts or gaps): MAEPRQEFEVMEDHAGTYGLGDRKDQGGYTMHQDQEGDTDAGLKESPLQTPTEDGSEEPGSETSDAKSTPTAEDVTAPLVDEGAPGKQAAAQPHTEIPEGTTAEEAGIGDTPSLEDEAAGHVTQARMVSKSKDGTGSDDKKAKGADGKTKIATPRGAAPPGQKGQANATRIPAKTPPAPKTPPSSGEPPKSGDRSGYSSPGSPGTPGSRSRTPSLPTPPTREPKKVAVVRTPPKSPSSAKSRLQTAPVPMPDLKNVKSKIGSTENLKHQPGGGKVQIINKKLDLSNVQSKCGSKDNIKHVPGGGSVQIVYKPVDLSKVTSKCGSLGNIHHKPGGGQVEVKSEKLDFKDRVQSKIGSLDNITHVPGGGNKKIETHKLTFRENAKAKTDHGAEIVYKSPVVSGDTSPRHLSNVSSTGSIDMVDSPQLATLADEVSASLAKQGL
From the text: Human Fyn-SH3 domain with GST-tag at the N-terminus and a Strep-tag II ([…]) at the C-terminus (GST-Fyn-SH3-Strep) was cloned into pPR-IBA1 vector (IBA Lifesciences) (Cochran, et al. (2014) J. Biomol. Screen. 19, 1338-1349). Codon-optimized human 4R2N Tau for E. coli expression with a Strep-tag II at the C-terminus (His-Tau-Strep) was cloned into pET-28a(+) vector (Novagen). The constructs were transformed into E. coli BL-21(DE3) competent cells (Novagen). For GST-Fyn-SH3-Strep purification, a single colony was inoculated in Luria-Bertani (LB) broth at 37° C. overnight. 10 mL cell culture was added into 500 mL LB medium and cultured at 37° C. 0.5 mM Isopropyl β-D-1-thiogalactopyranoside (IPTG) was added into the culture when OD600 reached 0.7. Cells were further cultured at 25° C. for 4 hours and harvested. Cell pellet was resuspended in lysis buffer (20 mM Tris pH 7.9, 300 mM NaCl, 1 mM TCEP) with 1 tablet of EDTA-free protease inhibitors (ThermoFisher) and 1 mg/ml lysozyme. Cells were disrupted by sonication and debris was removed by centrifugation at 9500 rpm for 1 hour. Supernatant was loaded onto a glutathione-sepharose column (Cytiva). The column was washed in lysis buffer and protein eluted in lysis buffer containing 25 mM reduced glutathione. For His-Tau-Strep protein purification, cells were inoculated in LB broth medium and cultured at 37° C. overnight. A 10 mL overnight culture was added to 500 mL of auto-induction medium (Studier, F. W. (2005) Protein Expr Purif 41, 207-34) and cells were cultured at 37° C. for about 5 hours. The temperature was lowered to 18° C., and cells were cultured overnight. Cells were harvested and resuspended in lysis buffer with 20 mM imidazole, protease inhibitors, and lysozyme. Cells were disrupted by sonication and cell pellets were spun down at 9500 rpm for 1 hour. Supernatant was loaded onto Ni-NTA column (Cytiva) and the column was washed in lysis buffer with 20 mM imidazole. His-Tau-Strep protein was eluted in lysis buffer containing 400 mM imidazole. Both eluted GST-Fyn-SH3-Strep and His-Tau-Strep protein solutions were passed through G-25 desalting column (Cytiva) with lysis buffer and loaded onto high capacity Strep-Tactin column (IBA Lifesciences). The columns were washed in Buffer W (IBA Life sciences) and proteins were eluted in Buffer E (IBA life sciences). The eluted proteins were passed through G-25 desalting column again. […]
Purified full-length Tau and FynSH3 were dialyzed into 20 mM Tris and 150 mM NaCl, pH 8.0 with Slide-A-Lyzer G2 Dialysis Cassettes with 10K MWCO (ThermoFisher #87729). […] Protein concentrations were measured on a Nanodrop2000 (ThermoFisher) based on absorbance at 280 nm. […]

Tau-PxxP5/6 = Tau-PxxP5/6 (Homo sapiens (Human), UniProt P10636); test: Isothermal titration calorimetry, Tau-PxxP5/6 peptide; assay type: binding
Procedure: ITC experiments were performed on an Auto-iTC200 system (Malvern Instruments, Westborough, MA). ITC sample cell contained ˜120 μM full-length Tau, FynSH3, or Tau-PxxP5/6 (titrand), and the syringe contained 1 mM compound no. 69 (titrant). Each titration experiment consisted of 16 injections of […] of titrant into titrand at 25° C. Background mixing heat was determined from injections of titrant into the same buffer without titrand. Data analysis was performed using the built-in analysis module in Origin 7 provided by the ITC manufacturer. The normalized titration heat was fitted to a “one set of sites” model to determine the best-fit binding parameters.

[1] = tested on: endogenous Tau-tubulin interaction; test: Tau-Tubulin PLA in HEK-293 cells; assay type: cell-based, human; details: 15 μM, 24 hours, untransfected HEK-293 cells
Procedure: Tau-Tubulin PLA: Untransfected HEK-293 cells were used to measure endogenous Tau-tubulin interaction. Cells were grown for 48 hours before applying 15 µM compound no. 69 for 24 hours. Cells were fixed and PLA was run as above except with Dako Tau (1:1000) and α-tubulin (1:2000) primary antibodies.

Question: Which results are given for `O=C(CN1CCOc2ccccc21)Nc1nnc(-c2ccccn2)[nH]1` [compound no. 69]?
Answer: Tau, Fyn (and GAPDH) levels in primary neurons (Tau, Fyn): did not lower Tau or Fyn levels; also recorded: does not reduce Tau, Fyn, or GAPDH levels; Fyn kinase inhibition (Fyn kinase): did not inhibit Fyn; ΔG, ITC with full-length Tau (full-length Tau; 25° C.): -6.7 kcal/mol; ΔH, ITC with full-length Tau (full-length Tau; 25° C.): -1.5 kcal/mol; Kd (full-length Tau; 25° C., read-out: Kd, ITC with full-length Tau): 11.9 µM; n, ITC with full-length Tau (full-length Tau; one set of sites model): 0.9; interaction with Tau-PxxP5/6 peptide, ITC (Tau-PxxP5/6): No interaction was observed; Tau-tubulin interaction, PLA [1]: did not inhibit Tau-tubulin binding; also recorded: does not inhibit Tau-tubulin interaction

From patent US20250367209A1 (SOUTHERN RESEARCH INSTITUTE, priority 2022, published 2025)
